For the assay, the target named is T1, sodium-proton exchanger of subtype 3 (NHE3) (Homo sapiens, UniProt P48764).
T1 construct: expressed in transfected cells
T1 sequence (P48764 26-834): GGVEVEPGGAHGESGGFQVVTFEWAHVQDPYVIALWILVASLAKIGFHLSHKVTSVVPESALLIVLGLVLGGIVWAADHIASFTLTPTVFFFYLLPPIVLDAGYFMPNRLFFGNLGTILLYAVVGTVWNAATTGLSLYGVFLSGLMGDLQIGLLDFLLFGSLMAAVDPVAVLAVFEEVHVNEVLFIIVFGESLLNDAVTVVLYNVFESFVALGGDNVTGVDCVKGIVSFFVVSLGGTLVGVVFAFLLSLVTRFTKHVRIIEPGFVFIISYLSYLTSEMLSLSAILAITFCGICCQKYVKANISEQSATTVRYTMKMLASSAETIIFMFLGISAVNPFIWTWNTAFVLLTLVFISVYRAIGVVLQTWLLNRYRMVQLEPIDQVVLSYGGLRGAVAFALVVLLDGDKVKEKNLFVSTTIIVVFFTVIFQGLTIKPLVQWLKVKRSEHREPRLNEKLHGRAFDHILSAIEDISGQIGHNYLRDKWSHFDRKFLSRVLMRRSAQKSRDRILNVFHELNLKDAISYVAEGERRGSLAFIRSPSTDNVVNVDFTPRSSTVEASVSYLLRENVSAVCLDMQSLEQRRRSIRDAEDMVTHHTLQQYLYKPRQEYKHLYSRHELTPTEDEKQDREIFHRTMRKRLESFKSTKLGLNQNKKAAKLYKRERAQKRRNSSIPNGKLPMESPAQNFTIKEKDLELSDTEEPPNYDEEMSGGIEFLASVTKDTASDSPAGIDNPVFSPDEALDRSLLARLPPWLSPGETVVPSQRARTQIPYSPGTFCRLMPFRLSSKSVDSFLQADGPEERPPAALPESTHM
Description: Recovery of intracellular pH (pHi) after acidification in LAP1 cells stably expressing NHE3 (BCECF fluorescence, FLIPR). In kind it is cell-based. The conditions noted are these: LAP1 cells stably expressing NHE3; pH recovery after acidification; range 1 is % inhibition at 10 μM; read-out: Activity range (inhibitory effect on NHE3).
Description: In this assay, the recovery of the intracellular pH (pHi) of LAP1 cells which stably express the sodium-proton exchanger of subtype 3 (NHE3) after acidification was determined. The recovery occurs even under bicarbonate-free conditions with functional NHE3. To this end, the pHi was determined using the pH-sensitive fluorescent dye BCECF (Molecular Probes, Eugene, Oreg., USA, employing the precursors BCECF-AM). The cells were initially incubated with BCECF (5 μM BCECF-AM) in NH4Cl buffer (NH4Cl buffer: 115 mM cholineCl, 20 mM NH4Cl, 5 mM KCl, 1 mM CaCl2, 1 mM MgCl2, 20 mM Hepes, 5 mM glucose, a pH of 7.4 was adjusted with 1 M KOH). The intracellular acidification was induced by washing the cells incubated in NH4Cl buffer with NH4Cl-free buffer (133.8 mM choline chloride, 4.7 mM KCl, 1.25 mM CaCl2, 1.25 mM MgCl2, 0.97 mM K2HPO4, 0.23 mM KH2PO4, 5 mM Hepes, 5 mM glucose, a pH of 7.4 was adjusted with 1 M KOH). After the washing step, 90 μl of the NH4Cl-free buffer were left on the cells. The pH recovery was started by adding 90 μl of Na^+-containing buffer (133.8 mM NaCl, 4.7 mM KCl, 1.25 mM CaCl2, 1.25 mM MgCl2, 0.97 mM Na2HPO4, 0.23 mM NaH2PO4, 10 mM Hepes, 5 mM glucose, a pH of 7.4 was adjusted with 1 M NaOH) in a measuring instrument (FLIPR, “Fluorometric Imaging Plate Reader”, Molecular Devices, Sunnyvale, Calif., USA). The BCECF fluorescence was determined with an excitation wavelength of 498 nm and the FLIPR emission filter 1 (bandpass from 510 to 570 nm). The subsequent changes in fluorescence as a measure of pH recovery were recorded for two minutes. To calculate the NHE3-inhibitory power of the tested substances, the cells were initially investigated in buffers with which complete or absolutely no pH recovery took place. For complete pH recovery (100%), the cells were incubated in Na^+-containing buffer (see above), and to determine the 0% value were incubated in Na^+-free buffer (see above). The substances to be tested were made up in Na^+-containing buffer. The recovery of the intracellular pH at each tested concentration of a substance was expressed as percent of the maximum recovery.
The IC50 of the respective substance for NHE3 was calculated from the percentages of pH recovery using the program XLFit (idbs, Surrey, UK).

For `N[C@@H]1CCCN([C@@H]2Cc3ccccc3[C@H]2Oc2ccc(F)cc2F)C1` (racemic) [Example 33, (R)-1-[rac-trans-(1,2)-1-(2,4-difluorophenoxy)indan-2-yl]piperidin-3-ylamine], the IC50 was 1000 to 10000 nM.
Same read-out and setting: in the case of `CC(=O)Nc1cccc(O[C@H]2c3ccccc3C[C@@H]2N2CCC[C@@H](NCCF)C2)c1` [Example 631, N-(3-{trans-(1S,2S)-2-[(R)-3-(2-fluoroethylamino)piperidin-1-yl]indan-1-yloxy}phenyl)-acetamide] it was less than 1000 nM; in that of `N[C@H]1CCCN([C@H]2CCc3ccccc3[C@@H]2Oc2cccc3[nH]nnc23)C1` (racemic) [Example 147, (S)-1-[rac-trans-(1,2)-1-(1H-benzotriazol-4-yloxy)-1,2,3,4-tetrahydronaphthalen-2-yl]piperidin-3-ylamine], less than 1000 nM.
On the same count and under the same terms, under `Cn1ccn(-c2ccc(O[C@H]3c4cc(Cl)cc(Cl)c4C[C@@H]3N3CC[C@@H](O)C3)c(F)c2)c1=O` [Example 329, 1-{4-[trans-(1S,2S)-4,6-dichloro-2-((R)-3-hydroxypyrrolidin-1-yl)indan-1-yloxy]-3-fluorophenyl}-3-methyl-1,3-dihydroimidazol-2-one] stands less than 1000 nM.
`COC(=O)c1ccc(O[C@H]2c3ccccc3CC[C@@H]2N2CCC[C@H](N)C2)c(Cl)c1` (racemic) [Example 531, 4-[rac-trans-(1,2)-2-((S)-3-aminopiperidin-1-yl)-1,2,3,4-tetrahydronaphthalen-1-yloxy]-3-chlorobenzoic acid methyl ester]: the inhibition at 10 µM was in the range of 20 to 50%.
Consider `CC(=O)Nc1cccc(O[C@@H]2c3ccccc3C[C@H]2N2CCC[C@H](N)C2)c1` (racemic) [Example 685, N-{3-[rac-trans-(1,2)-2-((S)-3-aminopiperidin-1-yl)indan-1-yloxy]phenyl}acetamide], for which the IC50 lay within 1000 to 10000 nM.
Same read-out and setting: in the case of `O=C(O)COC(=O)Nc1ccc(O[C@H]2c3cc(Cl)cc(Cl)c3C[C@@H]2N2CC[C@@H](O)C2)c(Cl)c1` [Example 236, {3-chloro-4-[(1S,2S)-4,6-dichloro-2-((R)-3-hydroxypyrrolidin-1-yl)indan-1-yloxy]phenylcarbamoyloxy}acetic acid] it was less than 1000 nM.
Same read-out and setting: under `N[C@@H]1CCCN([C@H]2CCc3ccccc3[C@@H]2Oc2cccc3ccc(Cl)nc23)C1` (racemic) [Example 41, (R)-1-[rac-trans-(1,2)-1-(2-chloroquinolin-8-yloxy)-1,2,3,4-tetrahydronaphthalen-2-yl]piperidin-3-ylamine] stands 1000 to 10000 nM.
For `Clc1ccc(O[C@@H]2c3ccccc3C[C@H]2N2C[C@H]3CNC[C@H]3C2)cn1` (racemic) [Example 18, 2-[rac-trans-(1,2)-1-(6-chloropyridin-3-yloxy)indan-2-yl]octahydropyrrolo[3,4-c]pyrrole], the IC50 was 1000 to 10000 nM.
On the same count and under the same terms, in the case of `CCOc1cccc(O[C@@H]2c3ccccc3C[C@H]2N2CCC(CN)C2)c1` (mixture of isomers) [Example 615, C-{1-[rac-trans-(1,2)-1-(3-ethoxyphenoxy)indan-2-yl]pyrrolidin-3-yl}methylamine] it was 1000 to 10000 nM.
As to `COc1cc(Cl)ccc1O[C@H]1c2ccccc2CC[C@@H]1N1CCC[C@@H](N)C1` (racemic) [Example 64, (R)-1-[rac-trans-(1,2)-1-(4-chloro-2-methoxyphenoxy)-1,2,3,4-tetrahydronaphthalen-2-yl]piperidin-3-ylamine], the inhibition at 10 µM lay in the range of 20 to 50%.
In the case of `Cc1nnc(C)n1-c1ccc(O[C@H]2c3cc(Cl)cc(Cl)c3C[C@@H]2N2CCCN(C)CC2)c(F)c1` [Example 346, 1-{trans-(1S,2S)-4,6-dichloro-1-[4-(3,5-dimethyl-[1,2,4]triazol-4-yl)-2-fluorophenoxy]indan-2-yl}-4-methyl-[1,4]diazepane], the IC50 is less than 1000 nM.
On the same count and under the same terms, in the case of `FC(F)(F)CCN[C@@H]1CCCN([C@H]2Cc3c(Cl)cc(Cl)cc3[C@@H]2Oc2ccc(-n3cncn3)cc2)C1` [Example 221, {(R)-1-[trans-(1S,2S)-4,6-dichloro-1-(4-[1,2,4]triazol-1-ylphenoxy)indan-2-yl]piperidin-3-yl}-(3,3,3-trifluoropropyl)amine] it was less than 1000 nM.
On the same count and under the same terms, under `NC(=O)c1ccc(O[C@@H]2c3ccccc3C[C@H]2N2CCC(N)C2)cc1` (mixture of isomers) [Example 544, 4-[rac-trans-(1,2)-2-(3-aminopyrrolidin-1-yl)indan-1-yloxy]benzamide] stands 1000 to 10000 nM.
The same measure, in the same setting: in the case of `CS(=O)(=O)c1nccn1-c1ccc(O[C@H]2c3cc(Cl)cc(Cl)c3C[C@@H]2N2CC[C@@H](O)C2)c(F)c1` [Example 739, (R)-1-{trans-(1S,2S)-4,6-Dichloro-1-[2-fluoro-4-(2-methanesulfonyl-imidazol-1-yl)-phenoxy]-indan-2-yl}-pyrrolidin-3-ol] it was less than 1000 nM; in that of `CS(=O)(=O)c1ccc(O[C@H]2c3cc(Cl)cc(Cl)c3C[C@@H]2N2CC[C@@H](NCCF)C2)cc1` [Example 226, {(R)-1-[trans-(1S,2S)-4,6-dichloro-1-(4-methanesulfonylphenoxy)indan-2-yl]pyrrolidin-3-yl}-(2-fluoroethyl)amine], less than 1000 nM.
Consider `N[C@@H]1CCCN([C@H]2CCc3ccccc3[C@@H]2Oc2ccc(-n3ccnc3)cc2)C1` (racemic) [Example 71, (R)-1-[rac-trans-(1,2)-1-(4-imidazol-1-ylphenoxy)-1,2,3,4-tetrahydronaphthalen-2-yl]piperidin-3-ylamine], for which the IC50 was 1000 to 10000 nM.
For the molecule `Cc1noc(C)c1-c1cc(F)ccc1O[C@H]1c2ccccc2C[C@@H]1N1CCCC1` [Example 503, 4-[5-fluoro-2-(trans-(1S,2S)-2-pyrrolidin-1-ylindan-1-yloxy)phenyl]-3,5-dimethylisoxazole], the inhibition at 10 µM lay within 20 to 50%.
As for `CS(=O)(=O)c1ccc(OC2c3ccccc3CC2N2CCC[C@@H](N)C2)c(Cl)c1Cl` (mixture of isomers) [Example 31, (R)-1-[rac-trans-(1,2)-1-(2,3-dichloro-4-methanesulfonylphenoxy)indan-2-yl]piperidin-3-ylamine], the IC50 is less than 1000 nM.
As to `CSc1ccc(O[C@H]2c3ccccc3CC[C@@H]2N2CCC[C@@H](N)C2)cc1` (racemic) [Example 74, (R)-1-[rac-trans-(1,2)-1-(4-methylsulfanylphenoxy)-1,2,3,4-tetrahydronaphthalen-2-yl]piperidin-3-ylamine], the inhibition at 10 µM fell in the range of 20 to 50%.
As for `Cc1cc(=O)cc(C)n1-c1ccc(O[C@H]2c3cc(Cl)cc(Cl)c3C[C@@H]2N2CC[C@@H](O)C2)c(F)c1` [Example 324, 1-{4-[(1S,2S)-4,6-dichloro-2-((R)-3-hydroxypyrrolidin-1-yl)indan-1-yloxy]-3-fluorophenyl}-2,6-dimethyl-1H-pyridin-4-one], the IC50 is less than 1000 nM.
Still for that read-out and setting: under `O=c1oc2ccc(O[C@@H]3c4ccccc4C[C@H]3N3C[C@H]4CNC[C@H]4C3)cc2s1` (racemic) [Example 577, 5-[rac-trans-(1,2)-2-(hexahydropyrrolo[3,4-c]pyrrol-2-yl)indan-1-yloxy]benzo[1,3]oxathiol-2-one] stands 1000 to 10000 nM; under `N[C@@H]1CCCN([C@H]2Cc3c(Cl)cc(Cl)cc3[C@@H]2Oc2ccc(-n3cncn3)cc2)C1` [Example 97, (R)-1-[trans-(1S,2S)-4,6-dichloro-1-(4-[1,2,4]triazol-1-ylphenoxy)indan-2-yl]piperidin-3-ylamine], less than 1000 nM.
Consider `CS(=O)(=O)c1cccc(O[C@H]2c3ccccc3C[C@@H]2N2CCCC2)c1` (racemic) [Example 269, 1-[rac-trans-(1,2)-1-(3-methanesulfonylphenoxy)indan-2-yl]pyrrolidine], for which the inhibition at 10 µM is 20 to 50%.
On the same count and under the same terms, under `N#Cc1ccc(O[C@H]2c3ccccc3CC[C@@H]2N2CCC[C@H](N)C2)cc1Cl` (racemic) [Example 529, 4-[rac-trans-(1,2)-2-((S)-3-aminopiperidin-1-yl)-1,2,3,4-tetrahydronaphthalen-1-yloxy]-2-chlorobenzonitrile] stands 20 to 50%.
Take `CC(=O)Nc1cccc(O[C@H]2c3cc(Cl)cc(Cl)c3C[C@@H]2N2CC[C@@H](CO)C2)c1` [Example 695, N-{3-[trans-(1S,2S)-4,6-dichloro-2-((R)-3-hydroxymethylpyrrolidin-1-yl)indan-1-yloxy]phenyl}acetamide]: the IC50 lay in the range of 1000 to 10000 nM.
On the same count and under the same terms, in the case of `Cc1nnc(C)n1-c1ccc(O[C@H]2c3ccccc3C[C@@H]2N2CCCC2)c(C(F)(F)F)c1` [Example 406, 3,5-dimethyl-4-[4-(trans-(1S,2S)-2-pyrrolidin-1-ylindan-1-yloxy)-3-trifluoromethylphenyl]-4H-[1,2,4]triazole] it was less than 1000 nM; in that of `CN(C1CCNCC1)[C@@H]1Cc2ccccc2[C@H]1Oc1ccc(N2CCNCC2)cc1` (racemic) [Example 630, methyl-[rac-trans-(1,2)-1-(4-piperazin-1-ylphenoxy)indan-2-yl]piperidin-4-ylamine], 1000 to 10000 nM.

The values above are taken from patent US8822449B2, “Substituted aminoindanes and analogs thereof, and the pharmaceutical use thereof” (Sanofi, priority 2008, dated 2014).
